Test results from PubChem BioAssay (NCI).
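Each compound was tested at five concentrations against cells in 96-well plates for 48 hours. TGI: concentration producing complete growth inhibition.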

Tests used:
Test in all cases: NCI anticancer screen, dose series, 48 h
NCI-H226 lung = test system: NCI-H226 lung
KM12 colon = test system: KM12 colon
OVCAR-4 ovarian = test system: OVCAR-4 ovarian
A549 NSCLC = test system: A549 NSCLC
SK-MEL-2 melanoma = test system: SK-MEL-2 melanoma
RPMI-8226 leukemia = test system: RPMI-8226 leukemia
SF-295 CNS = test system: SF-295 CNS
786-0 renal = test system: 786-0 renal
XF 498 CNS = test system: XF 498 CNS
SF-539 CNS = test system: SF-539 CNS
DMS 114 small cell lung = test system: DMS 114 small cell lung
SN12C renal = test system: SN12C renal
HOP-62 NSCLC = test system: HOP-62 NSCLC
HCT-15 colon = test system: HCT-15 colon
U251 CNS = test system: U251 CNS
HCC-2998 colon = test system: HCC-2998 colon
CCRF-CEM leukemia = test system: CCRF-CEM leukemia
DLD-1 colon = test system: DLD-1 colon
HOP-92 NSCLC = test system: HOP-92 NSCLC
IGROV1 ovarian = test system: IGROV1 ovarian
SK-OV-3 ovarian = test system: SK-OV-3 ovarian
MOLT-4 leukemia = test system: MOLT-4 leukemia
SK-MEL-28 melanoma = test system: SK-MEL-28 melanoma
SW-620 colon = test system: SW-620 colon
RXF 393 renal = test system: RXF 393 renal
UACC-62 melanoma = test system: UACC-62 melanoma
UACC-257 melanoma = test system: UACC-257 melanoma
SK-MEL-5 melanoma = test system: SK-MEL-5 melanoma
OVCAR-8 ovarian = test system: OVCAR-8 ovarian
NCI-H23 lung = test system: NCI-H23 lung
OVCAR-5 ovarian = test system: OVCAR-5 ovarian
LXFL 529 NSCLC = test system: LXFL 529 NSCLC
EKVX NSCLC = test system: EKVX NSCLC
NCI-H460 lung = test system: NCI-H460 lung
HOP-18 NSCLC = test system: HOP-18 NSCLC
SNB-19 CNS = test system: SNB-19 CNS
SF-268 CNS = test system: SF-268 CNS
K-562 leukemia = test system: K-562 leukemia
NCI-H522 lung = test system: NCI-H522 lung
SNB-78 CNS = test system: SNB-78 CNS
M19-MEL melanoma = test system: M19-MEL melanoma
OVCAR-3 ovarian = test system: OVCAR-3 ovarian
RXF-631 renal = test system: RXF-631 renal
CAKI-1 renal = test system: CAKI-1 renal
HT29 colon = test system: HT29 colon
TK-10 renal = test system: TK-10 renal
HL-60(TB) leukemia = test system: HL-60(TB) leukemia
LOX IMVI melanoma = test system: LOX IMVI melanoma
UO-31 renal = test system: UO-31 renal
HCT-116 colon = test system: HCT-116 colon
M14 melanoma = test system: M14 melanoma
SR leukemia = test system: SR leukemia
ACHN renal = test system: ACHN renal
MALME-3M melanoma = test system: MALME-3M melanoma
COLO 205 colon = test system: COLO 205 colon
KM20L2 colon = test system: KM20L2 colon
SNB-75 CNS = test system: SNB-75 CNS
A498 renal = test system: A498 renal
DU-145 prostate = test system: DU-145 prostate

Measured: TGI

CC1=C(C(=O)CC(=O)C(=O)Nc2cccc(Cl)c2C)Sc2ccccc2N1
not listed: COLO 205 colon | KM20L2 colon | SNB-75 CNS | A498 renal | DU-145 prostate
> 100 µM: all other assays above

CON(C)C(=O)CCCO
not listed: HCC-2998 colon | SK-OV-3 ovarian | OVCAR-5 ovarian | SNB-78 CNS | LOX IMVI melanoma | A498 renal | DU-145 prostate
> 100 µM: all other assays above

CCOC(=O)C=C1CCC2(CC1)OCCO2
not listed: DMS 114 small cell lung | HOP-62 NSCLC | EKVX NSCLC | SNB-78 CNS
> 100 µM: all other assays above
